{
  "source": "paper PMC11434129",
  "about": "“Mechanistic Insights from the Crystal Structure and Computational Analysis of the Radical SAM Deaminase DesII” (Advanced Science, 2024)",
  "key": {"DesII [1]": {"target": "T1, DesII (Streptomyces venezuelae, UniProt Q9ZGH1)", "T1 construct": "C-terminal His6-tag kept; selenomethionine derivative used for phasing; [Fe4S4] cluster; N-terminal 7-9 residues disordered in crystal", "test": "X-ray crystal structure, […] Å", "type": "binding"}, "[2]": {"target": "T2, DesII (second DesII expression construct) (Streptomyces venezuelae, UniProt Q9ZGH1)", "T2 construct": "pSJ5 vector, TrxA fusion, His8-tag and TEV site; N-terminal tag removed by TEV; [Fe4S4] cluster; loop D323-E337 disordered", "T2 sequence (Q9ZGH1 1-485)": "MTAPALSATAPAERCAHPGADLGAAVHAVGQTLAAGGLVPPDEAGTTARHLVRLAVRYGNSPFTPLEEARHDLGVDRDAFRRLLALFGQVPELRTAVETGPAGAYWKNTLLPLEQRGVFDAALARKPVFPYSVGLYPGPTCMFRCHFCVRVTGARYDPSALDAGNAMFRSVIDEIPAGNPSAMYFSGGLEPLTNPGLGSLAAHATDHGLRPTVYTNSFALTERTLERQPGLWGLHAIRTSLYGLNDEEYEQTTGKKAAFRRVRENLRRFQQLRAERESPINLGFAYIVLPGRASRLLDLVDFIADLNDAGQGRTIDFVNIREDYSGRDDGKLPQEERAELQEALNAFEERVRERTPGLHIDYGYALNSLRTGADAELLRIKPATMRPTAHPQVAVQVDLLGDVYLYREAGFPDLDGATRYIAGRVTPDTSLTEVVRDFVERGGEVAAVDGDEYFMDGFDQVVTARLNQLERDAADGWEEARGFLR", "test": "X-ray crystal structure, […] Å", "type": "binding", "conditions": "coordinates fourth iron of [Fe4S4] cluster in one monomer; pH 6.0 crystals"}, "DesII [3]": {"target": "T3, DesII (Streptomyces venezuelae, UniProt Q9ZGH1, E408Q)", "T3 construct": "C-terminal His6-tag kept; selenomethionine derivative used for phasing; [Fe4S4] cluster; N-terminal 7-9 residues disordered in crystal", "T3 sequence (Q9ZGH1 whole entry E408Q, the tested form may be a part)": "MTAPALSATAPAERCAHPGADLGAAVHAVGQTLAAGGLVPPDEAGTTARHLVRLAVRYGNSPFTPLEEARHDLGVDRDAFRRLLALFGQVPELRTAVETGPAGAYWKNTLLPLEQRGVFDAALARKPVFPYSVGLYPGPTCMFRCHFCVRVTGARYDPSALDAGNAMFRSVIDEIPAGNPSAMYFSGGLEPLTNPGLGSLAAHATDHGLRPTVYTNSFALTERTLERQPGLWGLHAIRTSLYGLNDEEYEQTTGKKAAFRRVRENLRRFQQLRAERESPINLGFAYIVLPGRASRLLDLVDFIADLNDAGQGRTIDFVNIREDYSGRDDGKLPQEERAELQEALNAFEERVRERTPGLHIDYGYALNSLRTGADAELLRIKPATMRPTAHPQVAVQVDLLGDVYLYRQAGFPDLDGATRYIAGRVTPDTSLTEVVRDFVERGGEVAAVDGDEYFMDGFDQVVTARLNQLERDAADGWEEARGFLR", "test": "deaminase activity assay", "type": "biochemical", "conditions": "deamination"}, "DesII [4]": {"target": "T1, DesII", "test": "deaminase activity assay", "type": "biochemical", "conditions": "deamination"}, "DesII [5]": {"target": "T4, DesII (Streptomyces venezuelae, UniProt Q9ZGH1, E408A)", "T4 construct": "C-terminal His6-tag kept; selenomethionine derivative used for phasing; [Fe4S4] cluster; N-terminal 7-9 residues disordered in crystal", "T4 sequence (Q9ZGH1 whole entry E408A, the tested form may be a part)": "as the sequence (Q9ZGH1 whole entry E408Q, the tested form may be a part) above, with Q408A counted along it", "test": "deaminase activity assay", "type": "biochemical", "conditions": "deamination"}},
  "data": [
    {"smiles": "CSCC[C@H](N)C(=O)O", "note": "[Met, methionine]", "values": [
      {"measurement": "X-ray crystal structure, 2.33 Å", "setting": "DesII [1]; active sites of chains b and d", "result": "with methionine bound in the active sites of chains b and d"},
      {"measurement": "X-ray crystal structure, 2.04 Å", "setting": "[2]", "result": "coordinated with a water molecule and the other with methionine"}
    ]},
    {"smiles": "Cc1cn([C@H]2C[C@H](O)[C@@H](COP(=O)(O)OP(=O)(O)O[C@H]3O[C@H](C)[C@@H](N)[C@H](O)[C@H]3O)O2)c(=O)[nH]c1=O", "note": "[compound 1, TDP-4-amino-4,6-dideoxy-D-glucose]", "values": [
      {"measurement": "deaminase activity assay", "setting": "DesII [3]", "result": "E408A and E408Q mutants were both constructed and found to retain deaminase activity"},
      {"measurement": "deaminase activity assay", "setting": "DesII [4]", "result": "found to retain deaminase activity comparable to that of wildtype enzyme"},
      {"measurement": "deaminase activity assay", "setting": "DesII [5]", "result": "E408A and E408Q mutants were both constructed and found to retain deaminase activity"}
    ]},
    {"smiles": "C[S+](CC[C@H](N)C(=O)O)C[C@H]1O[C@@H](n2cnc3c(N)ncnc32)[C@H](O)[C@@H]1O", "note": "(stereo partly drawn) [SAM, S-adenosyl-L-methionine]", "values": [
      {"measurement": "X-ray crystal structure, 2.33 Å", "setting": "DesII [1]; coordinated to [Fe4S4] cluster, chains a and c", "result": "A single molecule of SAM was found coordinated to the [Fe4S4] cluster in chains a"}
    ]}
  ]
}
